These results are taken from patent US10800732B2, “Substituted malonamides and their use as antibacterial drugs” (National Taiwan University, priority 2015, dated 2020).

≈ marks a conversion by molar mass, not a printed value. Like-named read-outs stand apart in the source and are kept apart here.

Data set [1] has as its system clinical isolated VISA strain. The data set can be described thus: MIC, VISA. It counts as cell-based, vancomycin-intermediate Staphylococcus aureus.
Data set [2] deals with MRSA SCCmec VT. Nature of the data set: MIC, MRSA SCCmec VT. In kind it is cell-based, methicillin-resistant Staphylococcus aureus. The note with it: Staphylococcus aureus.
The subject of data set [3] is MRSA ATCC 33592. The data set can be described thus: MIC, MRSA ATCC 33592. In kind it is cell-based, methicillin-resistant Staphylococcus aureus. The note with it: Staphylococcus aureus.
Data set [4] deals with S. epidermidis ATCC 12228. Nature of the data set: MIC, S. epidermidis ATCC 12228. It counts as cell-based. The note with it: Staphylococcus epidermidis, ATCC12228.
The subject of data set [5] is S. aureus NCTC 8325. It counts as cell-based, Staphylococcus aureus.
Data set [6] deals with MRSA (ATCC 43300). The data set can be described thus: MIC, MRSA ATCC 43300. It counts as cell-based, methicillin-resistant Staphylococcus aureus. The note with it: Staphylococcus aureus.
In data set [7] the test system is MRSA ATCC 49476. Nature of the data set: MIC, MRSA ATCC 49476. It counts as cell-based, methicillin-resistant Staphylococcus aureus. The note with it: Staphylococcus aureus.
In data set [8] the test system is MRSA (ATCC 43300). Nature of the data set: Minimal biofilm eradication concentration, MRSA in the biofilm. In kind it is cell-based, methicillin-resistant Staphylococcus aureus. The note with it: MRSA (ATCC 43300) in the biofilm. As for the experimental part: A biofilm is composed of attached microorganisms enclosed in an extracellular polymeric substance matrix. Bacteria embedded in the biofilm are protected from antibiotic-mediated killing and the immune response. Reports have shown that biofilm formation is an important factor contributing to S. aureus infections of the skin, lung and indwelling medical devices such as catheters. Thus, the effect of SC5005 on MRSA in a biofilm was assayed.

In data set [9] the test system is VRSA (SJC1200). The data set can be described thus: MIC, VRSA. In kind it is cell-based, vancomycin-resistant Staphylococcus aureus.
The subject of data set [10] is S. aureus NCTC 8325. Nature of the data set: MIC, S. aureus NCTC 8325 (CLSI broth microdilution / agar dilution). In kind it is cell-based, Staphylococcus aureus.
In data set [11] the test system is Human HT-29 cells. The data set can be described thus: LDH release assay (membrane integrity). It counts as cell-based. The note with it: 1 hour, concentration up to 128-fold of MIC against S. aureus. As for the experimental part:
FIG. 10. Membrane integrity of human cells treated with SC5005 and SC5035. Human HT-29 cells were treated with SC5005 and SC5035 for 1 hour followed by the evaluation of membrane integrity with LDH release assay. LDH released from HT-29 cells into culture medium was assessed by using CytoTox 96 NonRadioactive Cytotoxicity Assay. Cell treated with 1% triton X-100 serves as positive control (100% release). Bars represent the mean, and error bars represent the SD (n=3).
To further validate the activity of SC5005 and SC5035 on the membrane of human cells, the integrity of cellular membrane of cells treated with these two compounds was assessed by using LDH release assay. Human HT-29 cells were treated with SC5005 and SC5035 for 1 hour, and then the LDH released from cell into culture medium was assayed.

The subject of data set [12] is S. aureus NCTC 8325. Nature of the data set: Intracellular ATP leakage (ATPlite one-step). In kind it is cell-based, Staphylococcus aureus. The note with it: 4×MIC for 15 min. How it is done:
FIG. 6. Intracellular ATP leakage of S. aureus treated with SC5005, SC5035 and antibiotics. […] Data was presented as percentage of intracellular ATP level to that of untreated bacteria cells (considered as 100%). Bars represent the mean, and error bars represent the SD (n=3). ***: p-value <0.001
To investigate whether SC5005 and SC5035 also act on bacterial cell membrane, intracellular ATP levels of S. aureus treated with SC5005, SC5035 and antibiotics for 15 min was determined by using ATPlite one-step assay kit.

Data set [13] concerns S. aureus NCTC 8325. Nature of the data set: Membrane integrity (SYTO 9 / propidium iodide staining). It counts as cell-based, Staphylococcus aureus. The note with it: 4×MIC (Triton X-100: 10%) for 15 minutes. The source says: FIG. 7. Membrane integrity of S. aureus after SC5005, SC5035 and five common antibiotics treatment. […] SYTO 9, a green fluorescence dye, stains chromosome of all bacteria cells, regardless of the membrane integrity. In contrast, propidium iodide (PI), a red fluorescence dye, only stains cell with damaged membrane. Thus, bacteria cell with intact membrane can only be stained by SYTO 9, and cell with perforated membrane will be stained by both fluorescence dyes, showing a yellow color in merged images.
To further validate the action mechanism of SC5005 and SC5035, two fluorescence dyes were used for evaluation of membrane integrity of drug treated S. aureus. The propidium iodide dye only stains cells with perforated membrane, while the SYTO 9 stains all cells in spite of membrane integrity.

Data set [14] concerns human red blood cells. Nature of the data set: Hemolytic activity. It counts as cell-based. The note with it: 1 h, concentration up to 128-fold of MIC against S. aureus. How it is done:
FIG. 9. Hemolytic activities of SC5005 and SC5035 on human red blood cell. Human red blood cells were incubated with SC5005 (A) and SC5035 (B) for 1 h followed by measuring the absorption of RBC released hemoglobin at 540 nm with microplate reader. Cell treated with 1% triton X-100 serves as positive control (P.C.; 100% hemolysis), and those treated with normal saline serves as negative control (N.C.) Bars represent the mean, and error bars represent the SD (n=3).
As data shown above, SC5005 and SC5035 can kill bacteria via forming pore in bacterial membrane. To see whether the pore-forming activity of these two compounds is specific for bacterial membrane, the hemolytic activities of these two agents on human red blood cells were accessed.

Data set [15] has as its system S. aureus NCTC 8325. The data set can be described thus: Biosynthesis of macromolecules (3H precursor incorporation). The note with it: 4×MIC for 1 h. It counts as cell-based, Staphylococcus aureus. As for the experimental part: FIG. 5. Effect of SC5005 and SC5035 on the biosynthesis of macromolecules in S. aureus. […] Meanwhile, ofloxacin (1 mg/L), rifampicin (1 mg/L), erythromycin (2 mg/L), and vancomycin (2 mg/L) were used as control inhibitors for the biosynthesis of DNA, RNA, protein and cell wall, respectively. Data are means of three independent experiments. Error bars represent the SD.
To investigate the mode of action of SC5005, a new derivative, SC5035, with better selectivity of antibacterial activity over cytotoxicity was included in the assays. First, the impacts of these two compounds on the biosynthesis of important macromolecules, including DNA, RNA, protein and cell wall, in S. aureus NCTC 8325 were assessed. Bacteria cells were incubated with [^3H]thymidine to assess DNA synthesis, [^3H] uridine to assess RNA synthesis, [^3H] leucine to assess protein synthesis, and [^3H] N-Acetyl-D-glucosamine to assess cell wall synthesis. The ofloxacin, rifampicin, erythromycin and vancomycin were used as control inhibitor for DNA, RNA, protein, and cell wall biosynthesis, respectively. Inhibition of biosynthesis pathway was determined by a reduction in the radial isotope signal of bacteria.

Data set [16] relates to S. epidermidis ATCC 35984. Nature of the data set: MIC, S. epidermidis ATCC 35984. It counts as cell-based. The note with it: Staphylococcus epidermidis, ATCC35984; S. epidermidis ATCC 35984; read-out: MIC.
In data set [17] the test system is K-562. The data set can be described thus: Antiproliferative activity, K-562. In kind it is cell-based, human. The note with it: K-562, antiproliferative. As for the experimental part: (§1) In addition to the antibacterial activities, the cytotoxic effects of these malonate derivatives on human cancer cell lines were also assessed.
In data set [18] the test system is HEK-293. The data set can be described thus: Antiproliferative activity, HEK-293. It counts as cell-based, human. The note with it: HEK-293, antiproliferative. As for the experimental part:
as §1

[19] abbreviates: MRSA (ATCC 43300), read-out: MIC.

Turning to `CN[C@H](CC(C)C)C(=O)N[C@H]1C(=O)N[C@@H](CC(N)=O)C(=O)N[C@H]2C(=O)N[C@H]3C(=O)N[C@H](C(=O)N[C@H](C(=O)O)c4cc(O)cc(O)c4-c4cc3ccc4O)[C@H](O)c3ccc(c(Cl)c3)Oc3cc2cc(c3O[C@@H]2O[C@H](CO)[C@@H](O)[C@H](O)[C@H]2O[C@H]2C[C@](C)(N)[C@H](O)[C@H](C)O2)Oc2ccc(cc2Cl)[C@H]1O` [Vancomycin, reference compound], the MIC in data set [1] (Staphylococcus aureus, VISA) turned out to be 4 µg/mL (≈ 2.76 µM); in [2] (MRSA) it was 1 µg/mL (≈ 0.69 µM); in data set [3], 1 µg/mL (≈ 0.69 µM); in [4] it was 1 µg/mL (≈ 0.69 µM); in [6] it was 1 µg/mL (≈ 0.69 µM); in data set [7], 1 µg/mL (≈ 0.69 µM). Moreover, the MIC in data set [9] (Staphylococcus aureus, VRSA) was found to be 512 µg/mL (≈ 353 µM); in [10] (S. aureus (NCTC 8325), Table 3) it was 0.5 µg/mL (≈ 0.345 µM); in [10] (Staphylococcus aureus, NCTC8325), 0.5 µg/mL (≈ 0.345 µM). For the same molecule, the “increase in the value of MIC” value in data set [1] (VISA compared to vancomycin-susceptible S. aureus (VSSA)) came out at 4 fold. The “fold MIC change (resistance)” value in data set [5] (sub-inhibitory concentration for 30 consecutive days) came to 4 fold. Moreover, the MBEC is 1024 mg/L in data set [8] and more than 1024 mg/L in data set [8] (listed as vancomycin). In addition, in [9] (VRSA compared to VSSA), the “decrease in the susceptibility” value is listed as “over five-hundred decrease in the susceptibility”.

Regarding `CC(=O)NC[C@H]1CN(c2ccc(N3CCOCC3)c(F)c2)C(=O)O1` [Linezolid], the MIC in [6] (setting [19]) came out at 1 µg/mL (≈ 2.96 µM). In addition, the values for the MBEC in data set [8] and in data set [8] (listed as linezolid) were more than 1024 mg/L and 1024 mg/L, respectively.

On to `CCCCCCCCCC(=O)N[C@@H](Cc1c[nH]c2ccccc12)C(=O)N[C@H](CC(N)=O)C(=O)N[C@@H](CC(=O)O)C(=O)N[C@@H]1C(=O)NCC(=O)N[C@@H](CCCN)C(=O)N[C@@H](CC(=O)O)C(=O)N[C@H](C)C(=O)N[C@@H](CC(=O)O)C(=O)NCC(=O)N[C@H](CO)C(=O)N[C@@H]([C@H](C)CC(=O)O)C(=O)N[C@@H](CC(=O)c2ccccc2N)C(=O)O[C@@H]1C` [Daptomycin], for which the MIC in data set [6] (setting [19]) was determined as 0.5 µg/mL (≈ 0.309 µM). The MBEC in [8] is on record as 1024 mg/L.

For `O=C(Nc1cc(Cl)cc(Cl)c1)C(CCCl)C(=O)Nc1ccc(Cl)c(C(F)(F)F)c1` (stereo not shown) [SC5035, N^1-(4-chloro-3-(trifluoromethyl)phenyl)-2-(2-chloroethyl)-N^3-(3,5-dichlorophenyl)malonamide], the “LDH level released into culture medium” value in data set [11] is listed as “no significant increase in the LDH level”. The “intracellular ATP levels” value in data set [12] was “significantly dropped”. Besides, the “propidium iodide staining (membrane integrity)” value in data set [13] is recorded as “can be stained by propidium iodide”. Further, the MIC in data set [3] (MRSA ATCC 33592, Table 6, read-out: MIC) was 0.25 µg/mL (≈ 0.512 µM); in data set [10] (Staphylococcus aureus, MSSA NCTC 8325, Table 6, read-out: MIC) it was 0.25 µg/mL (≈ 0.512 µM). Moreover, the “hemolysis of RBC” value in data set [14] is recorded as “no significant hemolysis”. In addition, the “incorporation signal in DNA, RNA, protein and cell wall biosynthesis” value in data set [15] was “lower signal in all four macromolecule biosynthesis pathway”.

In the case of `CC[C@H]1OC(=O)[C@H](C)[C@@H](O[C@H]2C[C@@](C)(OC)[C@@H](O)[C@H](C)O2)[C@H](C)[C@@H](O[C@@H]2O[C@H](C)C[C@H](N(C)C)[C@H]2O)[C@](C)(O)C[C@@H](C)C(=O)[C@H](C)[C@@H](O)[C@]1(C)O` [Erythromycin], the MIC was more than 64 µg/mL in data set [2] (MRSA SCCmec VT, read-out: MIC); more than 64 µg/mL in data set [3] (MRSA ATCC 33592, read-out: MIC); 4 µg/mL (≈ 5.45 µM) in [4] (S. epidermidis ATCC 12228, read-out: MIC); more than 64 µg/mL in data set [7] (MRSA ATCC 49476, read-out: MIC); 4 µg/mL (≈ 5.45 µM) in data set [16]; 0.5 µg/mL (≈ 0.681 µM) in data set [10] (Staphylococcus aureus, NCTC8325, S. aureus NCTC 8325, read-out: MIC). The “time to over 64-fold MIC change” value in [5] (sub-inhibitory concentration, serial passage) is listed as not above 17 days.

Consider Triton X-100 [reference compound], for which the “propidium iodide staining (membrane integrity)” value in data set [13] is reported as “can be stained by propidium iodide”.

For `CCOC(=O)C1=C(N)Oc2ccc(Cl)cc2C1C(C#N)C(=O)OCC` (stereo not shown) [SC79], the IC50 in data set [17] came to 1.78 µg/mL (≈ 4.88 µM); in data set [18], 2.22 µg/mL (≈ 6.09 µM). This molecule also gave an MIC in data set [10] (S. aureus NCTC 8325, Table 2) of 0.5 µg/mL (≈ 1.37 µM).
